The record followed here is patent publication US20170002011A1, “BENZENE SULFONAMIDES AS CCR9 INHIBITORS” (NORGINE B.V., priority 2013, published 2017).

Assay [1] concerns the target T1, CCR9 (Homo sapiens, UniProt P51686).
T1 sequence (P51686 1-369): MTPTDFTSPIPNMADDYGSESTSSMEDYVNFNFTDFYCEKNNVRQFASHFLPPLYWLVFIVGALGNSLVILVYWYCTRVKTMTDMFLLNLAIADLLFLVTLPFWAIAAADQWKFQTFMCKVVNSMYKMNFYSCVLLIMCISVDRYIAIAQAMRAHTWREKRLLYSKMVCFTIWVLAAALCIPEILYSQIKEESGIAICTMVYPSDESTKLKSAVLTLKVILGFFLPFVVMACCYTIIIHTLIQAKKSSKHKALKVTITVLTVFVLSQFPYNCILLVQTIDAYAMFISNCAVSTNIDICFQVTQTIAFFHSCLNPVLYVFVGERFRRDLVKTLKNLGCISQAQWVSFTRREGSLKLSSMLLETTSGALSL
The assay is described as follows: FLIPR calcium flux assay using MOLT4 cells (TECK stimulation). It is filed as cell-based. Further details: endogenous in cells; host or cells: MOLT4 (human T-cell line). Particulars: MOLT4 cells (a human T-cell line); Ki determined from IC50 of TECK-induced intracellular calcium increase. The procedure:
Biological Activity: FLIPR Assay Using MOLT4 Cells
A calcium flux assay was used to determine the ability of the compounds to interfere with the binding between CCR9 and its chemokine ligand (TECK) in MOLT4 cells (a human T-cell line). MOLT4 cells were seeded (100,000 cells/well) in coming cell culture plates (Cat #3603) in assay buffer (lx HBSS, 20 mM HEPES) containing 2.5 mM Probenecid. The plate was centrifuged at 1200 rpm for 3 minutes and incubated at 37° C./5% CO2 for 2 hours. A 0.3× Fluo-4 NW calcium dye was prepared in assay buffer containing 5 mM Probenecid and stored in the dark. Each well was loaded with 25 μL of 0.3× Fluo-4 NW calcium dye and incubated at 37 C/5% CO2 for 60 minutes and then at room temperature for 30 minutes. A half-log serially diluted concentration response curve was prepared at a 4× concentration for each (10 μM-0.1 nM final assay concentration) and 25 μL of the compound then transferred to the cells (100 μL final volume) for 60 minutes prior to stimulation (30 minutes at 37° C./5% CO2 and 30 minutes at room temperature). TECK was diluted to 5× its EC50 in assay buffer (containing 0.1% [w/v] bovine serum albumin [BSA]) and 25 μL dispensed through the FLIPR instrument to stimulate the cells (125 μL final volume). The increased in intracellular calcium levels was measured with the FLIPR instrument. The potency of the compound as CCR9 antagonist was calculated as an IC50 using GraphPad Prism software (variable slope four parameter). The Ki of the compound was determined from the IC50 values using the following equation.
(§1) Ki calculation: IC50/1+(Agonist (TECK) conc. used in assay/EC50 of agonist (TECK) generated on day of experiment)

The target in assay [2] is T1, CCR9. The assay is described as follows: FLIPR calcium flux assay using hCCR9 over expressed cells (TECK stimulation). Particulars: Chem1-hCCR9 overexpressing cells; Ki determined from IC50 of TECK-induced intracellular calcium increase. The format is cell-based. Further details: expressed in transfected cells; host or cells: Chem-1 cells overexpressing hCCR9. As to the method:
Biological Activity: FLIPR Assay Using hCCR9 Over Expressed Cells
A calcium flux assay was used to determine the ability of the compounds to interfere with the binding between CCR9 and its chemokine ligand (TECK) in Cheml-hCCR9 overexpressing cells. hCCR9 overexpressing cells were seeded (25,000 cells/well) into black Poly-D-Lysine coated clear bottom 96-well plates (BD Biosciences, Cat #356640) and incubated overnight at 37° C./5% CO2 in a humidified incubator. Media was aspirated and cells washed twice with 100 μL assay buffer (1×HBSS, 20 mM HEPES) containing 2.5 mM Probenecid. A 0.3× Fluo-4 NW calcium dye was prepared in assay buffer containing 5 mM Probenecid and stored in the dark. Each well was loaded with 100 μL of 0.3× Fluo-4 NW calcium dye and incubated at 37° C./5% CO2 for 60 minutes and then at room temperature for 30 minutes. A half-log serially diluted concentration response curve was prepared at a 3× final assay concentration for each compound (10 μM−0.1 nM final assay concentration) and 50 μL of the compound then transferred to the cells (150 μL final volume) for 60 minutes prior to stimulation (30 minutes at 37° C./5% CO2 and 30 minutes at room temperature). TECK was diluted to 4× its ECso in assay buffer (containing 0.1% [w/v] bovine serum albumin[BSA]) and 50 μL dispensed through the fluorometric imaging plate reader (FLIPR) instrument to stimulate the cells (200 μL final volume). The increase in intracellular calcium levels was measured with the FLIPR instrument. The potency of the compound as a CCR9 antagonist was calculated as an IC50 using GraphPad Prism software (variable slope four parameter). The Ki of the compound was determined from the IC50 values using the following equation.
as §1

In the case of `Cc1cc2nccc(NS(=O)(=O)c3ccc(-c4cnco4)cc3)n2n1` [Compound 1, N-(2-methylpyrazolo[1,5-a]pyrimidin-7-yl)-4-(oxazol-5-yl)benzenesulfonamide], the inhibition constant Ki at CCR9 [1] turned out to be 0.019 µM; on CCR9 [2] it was 0.456 µM.
On to `Cc1cc2nccc(NS(=O)(=O)c3ccc(C(C)(C)C)cc3)n2n1` [Compound 3], for which the Ki is 0.315 µM at CCR9 [1] and 1.44 µM on CCR9 [2].
On to `CC(C)(C)c1ccc(S(=O)(=O)Nc2ccnc3cc(C4CC4)nn23)cc1` [Compound 37, 4-(tert-butyl)-N-(2-cyclopropylpyrazolo[1,5-a]pyrimidin-7-yl)benzenesulfonamide], for which the values for the Ki at CCR9 [1] and on CCR9 [2] were 0.703 µM and 1.95 µM, respectively.
Turning to `CC(C)c1cc2nccc(NS(=O)(=O)c3ccc(C(C)(C)C)cc3)n2n1` [Compound 79, 4-(tert-butyl)-N-(2-isopropylpyrazolo[1,5-a]pyrimidin-7-yl)benzenesulfonamide], the Ki came out at 0.295 µM at CCR9 [1] and 1.52 µM at CCR9 [2].
The corresponding values for `CCc1cc2nccc(NS(=O)(=O)c3ccc(C(C)(C)C)cc3)n2n1` [Compound 85, 4-(tert-butyl)-N-(2-ethylpyrazolo[1,5-a]pyrimidin-7-yl)benzenesulfonamide] are 0.111 µM and 1.8 µM.
The corresponding values for `Cc1cc2c(Cl)ccc(NS(=O)(=O)c3ccc(C(C)(C)C)cc3)n2n1` [Compound 94, 4-(tert-butyl)-N-(4-chloro-2-methylpyrazolo[1,5-a]pyridin-7-yl)benzenesulfonamide] are 0.162 µM and 0.181 µM.
The corresponding values for `Cc1cc2c(C#N)ccc(NS(=O)(=O)c3ccc(C(C)(C)C)cc3)n2n1` [Compound 95, 4-(tert-butyl)-N-(4-cyano-2-methylpyrazolo[1,5-a]pyridin-7-yl)benzene sulfonamide] are 0.002 µM and 0.11 µM.
In the case of `Cc1cc2c(Cl)ccc(NS(=O)(=O)c3ccc(C(C)(C)C#N)cc3)n2n1` [Compound 98], the inhibition constant (Ki) at CCR9 [1] turned out to be 0.109 µM; on CCR9 [2], 0.512 µM.
On to `CC(C)(C)c1ccc(S(=O)(=O)Nc2ccc(Cl)c3cc(C4CC4)nn23)cc1` [Compound 105], for which the Ki on CCR9 [1] was 0.285 µM; at CCR9 [2] it was 0.056 µM.
With `CC(C)(C)c1ccc(S(=O)(=O)Nc2ccc(Cl)c3cc(-c4cccnc4)nn23)cc1` [Compound 110, 4-(tert-butyl)-N-(4-chloro-2-(pyridin-3-yl)pyrazolo[1,5-a]pyridin-7-yl)benzenesulfonamide], the figures for the Ki at CCR9 [1] and at CCR9 [2] were 0.115 µM and 0.394 µM, respectively.
Turning to `CC(C)(C)c1ccc(S(=O)(=O)Nc2ccc(Cl)c3cc(-c4ccc[n+]([O-])c4)nn23)cc1` [Compound 111, 3-(7-((4-(tert-butyl)phenyl)sulfonamido)-4-chloropyrazolo[1,5-a]pyridin-2-yl)pyridine 1-oxide], the Ki on CCR9 [1] turned out to be 0.056 µM; on CCR9 [2], 0.19 µM.
The corresponding values for `O=S(=O)(Nc1ccc(Cl)c2cc(-c3cccnc3)nn12)c1ccc(C(F)(F)F)cc1` [Compound 113] are 0.187 µM and 0.756 µM.
The like results for `CC(C)(C)c1ccc(S(=O)(=O)Nc2ccc(C#N)c3cc(-c4cccnc4)nn23)cc1` [Compound 149, 4-(tert-butyl)-N-(4-cyano-2-(pyridin-3-yl)pyrazolo[1,5-a]pyridin-7-yl)benzenesulfonamide] were, in that order, 0.087 µM and 0.159 µM.
As for `CC(C)(C)c1ccc(S(=O)(=O)Nc2ccc(C#N)c3cc(-c4ccncc4)nn23)cc1` [Compound 150], at CCR9 [1], the Ki turned out to be 0.039 µM.
In the case of `Cn1nccc1-c1cc2c(C#N)ccc(NS(=O)(=O)c3ccc(C(C)(C)C)cc3)n2n1` [Compound 152], the Ki at CCR9 [1] is 0.041 µM; on CCR9 [2], 0.125 µM.
As for `CC(C)(C)c1ccc(S(=O)(=O)Nc2ccc(C#N)c3cc(-c4cncc(C#N)c4)nn23)cc1` [Compound 154, 4-(tert-butyl)-N-(4-cyano-2-(5-cyanopyridin-3-yl)pyrazolo[1,5-a]pyridin-7-yl)benzenesulfonamide], the Ki on CCR9 [1] worked out at 0.076 µM.
Regarding `CC(C)(C)c1ccc(S(=O)(=O)Nc2ccc(C#N)c3cc(-c4cncc(F)c4)nn23)cc1` [Compound 156, 4-(tert-butyl)-N-(4-cyano-2-(5-fluoropyridin-3-yl)pyrazolo[1,5-a]pyridin-7-yl)benzenesulfonamide], the values for the Ki on CCR9 [1] and at CCR9 [2] were 0.051 µM and 0.107 µM, respectively.
`COc1cncc(-c2cc3c(Br)ccc(NS(=O)(=O)c4ccc(C(C)(C)C)cc4)n3n2)c1` [Compound 160]: the Ki on CCR9 [1] came out at 0.17 µM.
On the same count and under the same terms, for `Cn1cc(-c2cc3c(Br)ccc(NS(=O)(=O)c4ccc(C(C)(C)C)cc4)n3n2)cn1` [Compound 165, 4-(tert-butyl)-N-(4-bromo-2-(1-methyl-1H-pyrazol-4-yl)pyrazolo[1,5-a]pyridin-7-yl)benzenesulfonamide] the value was 0.129 µM; for `CC(C)(C)c1ccc(S(=O)(=O)Nc2ccc(C#N)c3cc(-c4cnco4)nn23)cc1` [Compound 170, 4-(tert-butyl)-N-(4-cyano-2-(oxazol-5-yl)pyrazolo[1,5-a]pyridin-7-yl)benzenesulfonamide], 0.027 µM; for `COc1ccc(NS(=O)(=O)c2ccc(C(C)(C)C)cc2)n2nc(-c3cccnc3)cc12` [Compound 173, 4-(tert-butyl)-N-(4-methoxy-2-(pyridin-3-yl)pyrazolo[1,5-a]pyridin-7-yl)benzenesulfonamide], 0.377 µM.
For `CCn1cc(-c2cc3c(Cl)ccc(NS(=O)(=O)c4ccc(C(C)(C)C)cc4)n3n2)cn1` [Compound 185], the Ki on CCR9 [1] turned out to be 0.116 µM.
On the same count and under the same terms, under `Cc1c(-c2cc3c(Cl)ccc(NS(=O)(=O)c4ccc(C(C)(C)C)cc4)n3n2)cnn1C` [Compound 187] stands 0.318 µM; under `CC(C)(C)c1ccc(S(=O)(=O)Nc2ccc(Cl)c3cc(-c4cnccn4)nn23)cc1` [Compound 188], 0.194 µM; under `CC(C)(C)c1ccc(S(=O)(=O)Nc2ccc(C#N)c3cc(-c4ccccn4)nn23)cc1` [Compound 193], 0.081 µM.
On the same count and under the same terms, for `CCOc1ccc(-c2cc3c(Cl)ccc(NS(=O)(=O)c4ccc(C(C)(C)C)cc4)n3n2)cn1` [Compound 194] the value was 0.11 µM; for `CCOc1ccc(-c2cc3c(C#N)ccc(NS(=O)(=O)c4ccc(C(C)(C)C)cc4)n3n2)cn1` [Compound 195], 0.034 µM; for `COc1ccc(-c2cc3c(Cl)ccc(NS(=O)(=O)c4ccc(C(C)(C)C)cc4)n3n2)cn1` [Compound 197], 0.189 µM.
In the case of `COc1ncccc1-c1cc2c(Cl)ccc(NS(=O)(=O)c3ccc(C(C)(C)C)cc3)n2n1` [Compound 201], the Ki on CCR9 [1] was determined as 0.192 µM.
Consider `Cc1ccncc1-c1cc2c(Cl)ccc(NS(=O)(=O)c3ccc(C(C)(C)C)cc3)n2n1` [Compound 208], for which, at CCR9 [1], the Ki was determined as 0.088 µM.
The same measure, in the same setting: under `COc1ccc(-c2cc3c(C#N)ccc(NS(=O)(=O)c4ccc(C(C)(C)C)cc4)n3n2)c(OC)n1` [Compound 210] stands 0.149 µM.
